Read-outs that look alike come from different tables or passages of the source.
Test system: patients with locally advanced or metastatic solid tumors
Text: This was a Phase Ib, multicenter, open-label, dose-finding clinical trial (NCT02610075). […] Three types of treatment schedules were investigated: cohorts bid 1, bid 2, qd 1.1, qd 2.1 and qd 3.1 received bid or qd treatment on a 5/9 schedule (5 days on treatment, followed by 9 days off) on a 14-day cycle. Cohorts qd 1.2, qd 2.2, and qd 3.2 received treatment on a 5/2 schedule (5 days on followed by 2 days off for 2 of 3 weeks) in a 21-day cycle. Cohorts qd 2.3 and qd 3.3 received treatment on a weekly 5/2 schedule in a 21-day cycle (Table 1). The highest dose level(s) at which less than one-third of evaluable patients (none of 3 patients or 1 of 6 patients) experienced a dose-limiting toxicity (DLT) was declared the MTD.
The per protocol analysis set was defined as a subset of the full analysis set, excluding subjects having an important protocol deviation, to be used for analyses of efficacy endpoints if appropriate.

Structure (SMILES): C=CCn1c(=O)c2cnc(Nc3ccc(N4CCN(C)CC4)cc3)nc2n1-c1cccc(C(C)(C)O)n1 [adavosertib, Adavosertib]
- Dizziness (treatment-emergent AE) (qd 1.1: 200 mg qd 5/9 (n=5)): 1 (20.0) n (%)
- Dyspepsia (treatment-emergent AE) (qd 1.1: 200 mg qd 5/9 (n=5)): 1 (20.0) n (%)
- Dyspepsia (treatment-related AE) (qd 1.1: 200 mg qd 5/9 (n=5)): 0 n (%)
- Dyspnea (treatment-emergent AE) (qd 1.1: 200 mg qd 5/9 (n=5)): 0 n (%)
- Edema peripheral (treatment-emergent AE) (qd 1.1: 200 mg qd 5/9 (n=5)): 0 n (%)
- Fall (treatment-emergent AE) (qd 1.1: 200 mg qd 5/9 (n=5)): 0 n (%)
- Fatigue (treatment-emergent AE) (qd 1.1: 200 mg qd 5/9 (n=5)): 2 (40.0) n (%)
- Fatigue (treatment-related AE) (qd 1.1: 200 mg qd 5/9 (n=5)): 1 (20.0) n (%)
- Headache (treatment-emergent AE) (qd 1.1: 200 mg qd 5/9 (n=5)): 1 (20.0) n (%)
- Hypokalemia (treatment-emergent AE) (qd 1.1: 200 mg qd 5/9 (n=5)): 0 n (%)
- Insomnia (treatment-emergent AE) (qd 1.1: 200 mg qd 5/9 (n=5)): 0 n (%)
- Muscle spasms (treatment-emergent AE) (qd 1.1: 200 mg qd 5/9 (n=5)): 0 n (%)
- Myalgia (treatment-emergent AE) (qd 1.1: 200 mg qd 5/9 (n=5)): 1 (20.0) n (%)
- Myalgia (treatment-related AE) (qd 1.1: 200 mg qd 5/9 (n=5)): 1 (20.0) n (%)
- Nausea (treatment-emergent AE) (qd 1.1: 200 mg qd 5/9 (n=5)): 1 (20.0) n (%)
- Nausea (treatment-related AE) (qd 1.1: 200 mg qd 5/9 (n=5)): 1 (20.0) n (%)
- Neutropenia (treatment-emergent AE) (qd 1.1: 200 mg qd 5/9 (n=5)): 1 (20.0) n (%)
- Neutropenia (treatment-related AE) (qd 1.1: 200 mg qd 5/9 (n=5)): 1 (20.0) n (%)
- Pneumonia (treatment-emergent AE) (qd 1.1: 200 mg qd 5/9 (n=5)): 0 n (%)
- Pyrexia (treatment-emergent AE) (qd 1.1: 200 mg qd 5/9 (n=5)): 1 (20.0) n (%)
- Rash (treatment-emergent AE) (qd 1.1: 200 mg qd 5/9 (n=5)): 1 (20.0) n (%)
- Thrombocytopenia (treatment-emergent AE) (qd 1.1: 200 mg qd 5/9 (n=5)): 0 n (%)
- Thrombocytopenia (treatment-related AE) (qd 1.1: 200 mg qd 5/9 (n=5)): 0 n (%)
- Urinary tract infection (treatment-emergent AE) (qd 1.1: 200 mg qd 5/9 (n=5)): 1 (20.0) n (%)
- Vomiting (treatment-emergent AE) (qd 1.1: 200 mg qd 5/9 (n=5)): 0 n (%)
- Vomiting (treatment-related AE) (qd 1.1: 200 mg qd 5/9 (n=5)): 0 n (%)
- Abdominal pain (treatment-emergent AE) (qd 1.2: 200 mg qd 5/2 (n=6)): 2 (33.3) n (%)
- Abdominal pain (treatment-related AE) (qd 1.2: 200 mg qd 5/2 (n=6)): 1 (16.7) n (%)
- Alanine aminotransferase increased (treatment-emergent AE) (qd 1.2: 200 mg qd 5/2 (n=6)): 1 (16.7) n (%)
- Anemia (treatment-emergent AE) (qd 1.2: 200 mg qd 5/2 (n=6)): 2 (33.3) n (%)
- Anemia (treatment-related AE) (qd 1.2: 200 mg qd 5/2 (n=6)): 2 (33.3) n (%)
- Any AE (treatment-emergent) (qd 1.2: 200 mg qd 5/2 (n=6)): 6 (100) n (%)
- Any grade ≥ 3 AE (qd 1.2: 200 mg qd 5/2 (n=6)): 3 (50.0) n (%)
- Any treatment-related AE (qd 1.2: 200 mg qd 5/2 (n=6)): 6 (100) n (%)
- Any treatment-related grade ≥ 3 AE (qd 1.2: 200 mg qd 5/2 (n=6)): 2 (33.3) n (%)
- Asthenia (treatment-emergent AE) (qd 1.2: 200 mg qd 5/2 (n=6)): 0 n (%)
- Asthenia (treatment-related AE) (qd 1.2: 200 mg qd 5/2 (n=6)): 0 n (%)
- Back pain (treatment-emergent AE) (qd 1.2: 200 mg qd 5/2 (n=6)): 1 (16.7) n (%)
- Constipation (treatment-emergent AE) (qd 1.2: 200 mg qd 5/2 (n=6)): 2 (33.3) n (%)
- Constipation (treatment-related AE) (qd 1.2: 200 mg qd 5/2 (n=6)): 1 (16.7) n (%)
- Cough (treatment-emergent AE) (qd 1.2: 200 mg qd 5/2 (n=6)): 1 (16.7) n (%)
- Decreased appetite (treatment-emergent AE) (qd 1.2: 200 mg qd 5/2 (n=6)): 1 (16.7) n (%)
- Decreased appetite (treatment-related AE) (qd 1.2: 200 mg qd 5/2 (n=6)): 1 (16.7) n (%)
- Dehydration (treatment-emergent AE) (qd 1.2: 200 mg qd 5/2 (n=6)): 2 (33.3) n (%)
- Dehydration (treatment-related AE) (qd 1.2: 200 mg qd 5/2 (n=6)): 1 (16.7) n (%)
- Diarrhea (treatment-emergent AE) (qd 1.2: 200 mg qd 5/2 (n=6)): 3 (50.0) n (%)
- Diarrhea (treatment-related AE) (qd 1.2: 200 mg qd 5/2 (n=6)): 2 (33.3) n (%)
- Dizziness (treatment-emergent AE) (qd 1.2: 200 mg qd 5/2 (n=6)): 2 (33.3) n (%)
- Dyspepsia (treatment-emergent AE) (qd 1.2: 200 mg qd 5/2 (n=6)): 1 (16.7) n (%)
- Dyspepsia (treatment-related AE) (qd 1.2: 200 mg qd 5/2 (n=6)): 1 (16.7) n (%)
- Dyspnea (treatment-emergent AE) (qd 1.2: 200 mg qd 5/2 (n=6)): 1 (16.7) n (%)
- Edema peripheral (treatment-emergent AE) (qd 1.2: 200 mg qd 5/2 (n=6)): 3 (50.0) n (%)
- Fall (treatment-emergent AE) (qd 1.2: 200 mg qd 5/2 (n=6)): 1 (16.7) n (%)
- Fatigue (treatment-emergent AE) (qd 1.2: 200 mg qd 5/2 (n=6)): 1 (16.7) n (%)
- Fatigue (treatment-related AE) (qd 1.2: 200 mg qd 5/2 (n=6)): 1 (16.7) n (%)
- Headache (treatment-emergent AE) (qd 1.2: 200 mg qd 5/2 (n=6)): 2 (33.3) n (%)
- Hypokalemia (treatment-emergent AE) (qd 1.2: 200 mg qd 5/2 (n=6)): 0 n (%)
- Insomnia (treatment-emergent AE) (qd 1.2: 200 mg qd 5/2 (n=6)): 1 (16.7) n (%)
- Muscle spasms (treatment-emergent AE) (qd 1.2: 200 mg qd 5/2 (n=6)): 1 (16.7) n (%)
- Myalgia (treatment-emergent AE) (qd 1.2: 200 mg qd 5/2 (n=6)): 3 (50.0) n (%)
- Myalgia (treatment-related AE) (qd 1.2: 200 mg qd 5/2 (n=6)): 3 (50.0) n (%)
- Nausea (treatment-emergent AE) (qd 1.2: 200 mg qd 5/2 (n=6)): 4 (66.7) n (%)
- Nausea (treatment-related AE) (qd 1.2: 200 mg qd 5/2 (n=6)): 4 (66.7) n (%)
- Neutropenia (treatment-emergent AE) (qd 1.2: 200 mg qd 5/2 (n=6)): 1 (16.7) n (%)
- Neutropenia (treatment-related AE) (qd 1.2: 200 mg qd 5/2 (n=6)): 0 n (%)
- Pneumonia (treatment-emergent AE) (qd 1.2: 200 mg qd 5/2 (n=6)): 0 n (%)
- Pyrexia (treatment-emergent AE) (qd 1.2: 200 mg qd 5/2 (n=6)): 1 (16.7) n (%)
- Rash (treatment-emergent AE) (qd 1.2: 200 mg qd 5/2 (n=6)): 0 n (%)
- Thrombocytopenia (treatment-emergent AE) (qd 1.2: 200 mg qd 5/2 (n=6)): 0 n (%)
- Thrombocytopenia (treatment-related AE) (qd 1.2: 200 mg qd 5/2 (n=6)): 0 n (%)
- Urinary tract infection (treatment-emergent AE) (qd 1.2: 200 mg qd 5/2 (n=6)): 1 (16.7) n (%)
- Vomiting (treatment-emergent AE) (qd 1.2: 200 mg qd 5/2 (n=6)): 3 (50.0) n (%)
- Vomiting (treatment-related AE) (qd 1.2: 200 mg qd 5/2 (n=6)): 3 (50.0) n (%)
- Abdominal pain (treatment-emergent AE) (qd 2.1: 250 mg qd 5/9 (n=4)): 1 (25.0) n (%)
- Abdominal pain (treatment-related AE) (qd 2.1: 250 mg qd 5/9 (n=4)): 1 (25.0) n (%)
- Alanine aminotransferase increased (treatment-emergent AE) (qd 2.1: 250 mg qd 5/9 (n=4)): 0 n (%)
- Anemia (treatment-emergent AE) (qd 2.1: 250 mg qd 5/9 (n=4)): 1 (25.0) n (%)
- Anemia (treatment-related AE) (qd 2.1: 250 mg qd 5/9 (n=4)): 0 n (%)
- Any AE (treatment-emergent) (qd 2.1: 250 mg qd 5/9 (n=4)): 4 (100) n (%)
- Any grade ≥ 3 AE (qd 2.1: 250 mg qd 5/9 (n=4)): 2 (50.0) n (%)
- Any treatment-related AE (qd 2.1: 250 mg qd 5/9 (n=4)): 2 (50.0) n (%)
- Any treatment-related grade ≥ 3 AE (qd 2.1: 250 mg qd 5/9 (n=4)): 0 n (%)
- Asthenia (treatment-emergent AE) (qd 2.1: 250 mg qd 5/9 (n=4)): 0 n (%)
- Asthenia (treatment-related AE) (qd 2.1: 250 mg qd 5/9 (n=4)): 0 n (%)
- Back pain (treatment-emergent AE) (qd 2.1: 250 mg qd 5/9 (n=4)): 0 n (%)
- Constipation (treatment-emergent AE) (qd 2.1: 250 mg qd 5/9 (n=4)): 0 n (%)
- Constipation (treatment-related AE) (qd 2.1: 250 mg qd 5/9 (n=4)): 0 n (%)
- Cough (treatment-emergent AE) (qd 2.1: 250 mg qd 5/9 (n=4)): 2 (50.0) n (%)
- Decreased appetite (treatment-emergent AE) (qd 2.1: 250 mg qd 5/9 (n=4)): 0 n (%)
- Decreased appetite (treatment-related AE) (qd 2.1: 250 mg qd 5/9 (n=4)): 0 n (%)
- Dehydration (treatment-emergent AE) (qd 2.1: 250 mg qd 5/9 (n=4)): 0 n (%)
- Dehydration (treatment-related AE) (qd 2.1: 250 mg qd 5/9 (n=4)): 0 n (%)
- Diarrhea (treatment-emergent AE) (qd 2.1: 250 mg qd 5/9 (n=4)): 1 (25.0) n (%)
- Diarrhea (treatment-related AE) (qd 2.1: 250 mg qd 5/9 (n=4)): 1 (25.0) n (%)
- Dizziness (treatment-emergent AE) (qd 2.1: 250 mg qd 5/9 (n=4)): 0 n (%)
- Dyspepsia (treatment-emergent AE) (qd 2.1: 250 mg qd 5/9 (n=4)): 0 n (%)
- Dyspepsia (treatment-related AE) (qd 2.1: 250 mg qd 5/9 (n=4)): 0 n (%)
- Dyspnea (treatment-emergent AE) (qd 2.1: 250 mg qd 5/9 (n=4)): 0 n (%)
- Edema peripheral (treatment-emergent AE) (qd 2.1: 250 mg qd 5/9 (n=4)): 1 (25.0) n (%)
- Fall (treatment-emergent AE) (qd 2.1: 250 mg qd 5/9 (n=4)): 0 n (%)
- Fatigue (treatment-emergent AE) (qd 2.1: 250 mg qd 5/9 (n=4)): 0 n (%)
- Fatigue (treatment-related AE) (qd 2.1: 250 mg qd 5/9 (n=4)): 0 n (%)
- Headache (treatment-emergent AE) (qd 2.1: 250 mg qd 5/9 (n=4)): 0 n (%)
- Hypokalemia (treatment-emergent AE) (qd 2.1: 250 mg qd 5/9 (n=4)): 0 n (%)
- Insomnia (treatment-emergent AE) (qd 2.1: 250 mg qd 5/9 (n=4)): 0 n (%)
- Muscle spasms (treatment-emergent AE) (qd 2.1: 250 mg qd 5/9 (n=4)): 0 n (%)
- Myalgia (treatment-emergent AE) (qd 2.1: 250 mg qd 5/9 (n=4)): 0 n (%)
- Myalgia (treatment-related AE) (qd 2.1: 250 mg qd 5/9 (n=4)): 0 n (%)
- Nausea (treatment-emergent AE) (qd 2.1: 250 mg qd 5/9 (n=4)): 0 n (%)
- Nausea (treatment-related AE) (qd 2.1: 250 mg qd 5/9 (n=4)): 0 n (%)
- Neutropenia (treatment-emergent AE) (qd 2.1: 250 mg qd 5/9 (n=4)): 0 n (%)
- Neutropenia (treatment-related AE) (qd 2.1: 250 mg qd 5/9 (n=4)): 0 n (%)
- Pneumonia (treatment-emergent AE) (qd 2.1: 250 mg qd 5/9 (n=4)): 0 n (%)
- Pyrexia (treatment-emergent AE) (qd 2.1: 250 mg qd 5/9 (n=4)): 1 (25.0) n (%)
- Rash (treatment-emergent AE) (qd 2.1: 250 mg qd 5/9 (n=4)): 0 n (%)
- Thrombocytopenia (treatment-emergent AE) (qd 2.1: 250 mg qd 5/9 (n=4)): 0 n (%)

— publication PMC10289903 (Investigational New Drugs, 2023)
